{"source": "paper PMC3348126", "about": "“Pharmacogenetics Meets Metabolomics: Discovery of Tryptophan as a New Endogenous OCT2 Substrate Related to Metformin Disposition” (PLoS ONE, 2012)", "format_in_all_cases": "cell-based", "key": {"[1]": {"target": "T1, Organic cation transporter 2 (OCT2) (Homo sapiens, UniProt O15244)", "T1 construct": "gene SLC22A2", "test": "inhibition of [3H]MPP+ uptake and direct [3H]tryptophan uptake in OCT2-expressing oocytes"}, "OCT1": {"target": "T2, OCT1 (Homo sapiens, UniProt O15245)", "T2 construct": "gene SLC22A1; OCT1 expressed in oocytes (pcDNA3.1-OCT1)", "T2 sequence (O15245 1-554)": "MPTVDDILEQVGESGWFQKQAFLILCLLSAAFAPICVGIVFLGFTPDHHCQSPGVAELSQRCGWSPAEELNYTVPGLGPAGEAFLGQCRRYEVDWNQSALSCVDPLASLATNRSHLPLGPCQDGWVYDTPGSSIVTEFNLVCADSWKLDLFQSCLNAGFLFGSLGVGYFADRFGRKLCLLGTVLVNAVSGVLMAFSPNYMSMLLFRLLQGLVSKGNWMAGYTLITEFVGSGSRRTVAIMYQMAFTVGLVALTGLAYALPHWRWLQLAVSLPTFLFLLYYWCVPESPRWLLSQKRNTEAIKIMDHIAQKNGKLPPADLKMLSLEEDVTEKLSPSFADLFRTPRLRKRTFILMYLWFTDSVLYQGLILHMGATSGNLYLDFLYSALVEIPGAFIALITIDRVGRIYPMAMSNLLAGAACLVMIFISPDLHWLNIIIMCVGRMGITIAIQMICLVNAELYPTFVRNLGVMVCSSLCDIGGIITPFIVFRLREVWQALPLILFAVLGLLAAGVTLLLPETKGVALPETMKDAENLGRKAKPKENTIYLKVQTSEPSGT", "test": "inhibition of OCT1-mediated [3H]MPP+ uptake and direct tryptophan uptake in oocytes", "details": "read-out: % inhibition at 1 mM"}, "[2]": {"target": "T3, Organic cation transporter 2 (OCT2) 808G>T variant (Homo sapiens, UniProt O15244)", "T3 construct": "gene SLC22A2; OCT2 808G>T variant expressed in oocytes", "T3 sequence (O15244 1-555)": "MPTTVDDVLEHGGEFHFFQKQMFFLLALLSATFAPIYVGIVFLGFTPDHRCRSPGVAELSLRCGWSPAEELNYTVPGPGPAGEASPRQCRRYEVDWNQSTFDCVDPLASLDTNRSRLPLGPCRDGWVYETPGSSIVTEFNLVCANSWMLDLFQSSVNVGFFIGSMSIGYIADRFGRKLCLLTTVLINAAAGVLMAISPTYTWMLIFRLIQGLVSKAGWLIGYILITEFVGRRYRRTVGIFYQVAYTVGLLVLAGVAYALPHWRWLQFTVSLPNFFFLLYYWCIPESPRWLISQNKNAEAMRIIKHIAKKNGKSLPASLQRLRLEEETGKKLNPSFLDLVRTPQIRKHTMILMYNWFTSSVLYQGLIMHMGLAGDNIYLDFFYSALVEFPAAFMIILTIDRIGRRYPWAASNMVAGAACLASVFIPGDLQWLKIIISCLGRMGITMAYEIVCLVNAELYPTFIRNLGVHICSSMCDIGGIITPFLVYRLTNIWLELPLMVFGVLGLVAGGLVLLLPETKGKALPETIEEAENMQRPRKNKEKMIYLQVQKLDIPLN", "test": "[3H]tryptophan uptake ([…]) in oocytes expressing the variant"}, "[3]": {"target": "T1, Organic cation transporter 2 (OCT2)", "test": "[3H]MPP+ uptake ([…]) in OCT2-expressing oocytes, water-injected background subtracted"}, "[4]": {"target": "T4, Organic cation transporter 2 (OCT2) (Homo sapiens, UniProt O15244)", "T4 construct": "gene SLC22A2; OCT2 expressed in oocytes", "T4 sequence (O15244 1-555)": "T3 sequence (O15244 1-555)", "test": "inhibition of [3H]MPP+ uptake in OCT2-expressing oocytes"}}, "data": [{"smiles": "N[C@@H](Cc1c[nH]c2ccccc12)C(=O)O", "note": "[L-tryptophan]", "values": [{"measurement": "IC50", "setting": "[1]", "result": 6.11, "unit": "mM"}, {"measurement": "inhibition at 1000 µM", "setting": "OCT1", "result": 50, "unit": "%"}, {"measurement": "[3H]tryptophan uptake (100 nM) in oocytes expressing the variant", "setting": "[2]", "result": 0.14, "unit": "fmol/min/oocyte"}]}, {"smiles": "C[n+]1ccc(-c2ccccc2)cc1", "note": "[MPP+]", "values": [{"measurement": "[3H]MPP+ uptake (18.5 nM) in OCT2-expressing oocytes, water-injected background", "setting": "[3]", "result": 2.9, "unit": "fmol/min/oocyte"}]}, {"smiles": "O=c1ccn([C@@H]2O[C@H](CO)[C@@H](O)[C@H]2O)c(=O)[nH]1", "note": "[uridine]", "values": [{"measurement": "IC50", "setting": "[4]", "result": 51.5, "unit": "mM"}]}]}
